Test [1] addresses T1, CXCR3 (Homo sapiens, UniProt P49682).
T1 construct: expressed in transfected cells; host or cells: HEK293 / HEK293T cells, stably transfected; membrane preparations
T1 sequence (P49682 1-368): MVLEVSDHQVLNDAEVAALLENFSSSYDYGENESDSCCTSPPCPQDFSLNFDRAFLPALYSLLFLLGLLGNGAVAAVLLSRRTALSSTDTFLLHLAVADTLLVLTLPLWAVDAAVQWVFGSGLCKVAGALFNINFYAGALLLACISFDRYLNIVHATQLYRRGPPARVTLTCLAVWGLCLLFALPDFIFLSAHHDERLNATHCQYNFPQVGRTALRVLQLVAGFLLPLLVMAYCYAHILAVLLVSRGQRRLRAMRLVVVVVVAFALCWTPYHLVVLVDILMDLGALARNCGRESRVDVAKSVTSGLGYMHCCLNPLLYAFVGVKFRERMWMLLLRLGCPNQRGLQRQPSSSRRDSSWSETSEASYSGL
As to the kind of experiment: [35S]GTPγS incorporation assay. The class given is biochemical. To be noted: for CXCR3 Efficacy (%) ± SEM / Emax: % of CXCL11 mediated effect; for CXCR3 Efficacy (%) ± SEM / Emax / CXCR3 pEC50 ± SEM / EC50: membrane preparations of HEK293T stably expressing CXCR3; for Emax: read-out: CXCR3 Efficacy (%) ± SEM; for CXCR3 pEC50 ± SEM: mean of three experiments in triplicate; for EC50: read-out: EC50 / potency in [35S]GTPγS incorporation. The method, then:
Membrane preparation for allosteric radioligand RAMX3 displacement and [^35S]GTPγS incorporation assays: The human embryonic kidney (HEK) cells stably expressing the human CXCR3 receptor were cultured in 150-mm cell culture plates in DMEM/F-12 supplemented with 10% fetal bovine serum (FBS), 2 mM L-glutamine, 1% penicillin-streptomycin, 300 µgmL^-1 Zeocin and incubated at 37 °C in a humid atmosphere with 5% CO2. At 100% confluency cells were washed with PBS twice, treated with Tris EDTA buffer (10 mM Tris, 0.5 mM EDTA, 5 mM KCl, 140 mM NaCl, pH 7.4), and harvested using a cell scraper. Cells were pelleted at 1100×g for 8 min at 4 °C, resuspended in Tris-EDTA-MgCl2 buffer (50mM Tris, 5 mM EDTA, 1.5 mM CaCl2, 5 mM MgCl2, 5 mM KCl, 120 mM NaCl, pH 7.4) and followed by lysis with an Ultra-Turrax. After centrifugation at 50,000•g, at 4°C for 18 min the membranes were resuspended in the binding buffer (50 mM Tris, 1 mM EDTA, 5 mM MgCl2 and subsequently homogenized with a glass-Teflon homogenizer (20 strokes). The homogenized membranes were shock-frozen in liquid nitrogen and stored at -80°C. The protein concentration was determined with the Lowry method with bovine serum albumin used as a standard.^35
[^35S]GTPγS incorporation assay: The [^35S]GTPγS incorporation assay was performed on membrane preparations of stably transfected HEK293 cells that expressed the CXCR3 receptor. The assay was carried out in 96-well plates at the final volume of 200 µL. The incubation buffer contained 20 mM HEPES, 10 mM MgCl2•6H20,100 mM NaCl and 100 mg/L saponin (pH 7.4). Membranes (30 µgmL^-1 of membrane protein), various concentrations of test compound and CXCL11, and 1 µM GDP were preincubated in the absence of [^35S]GTPγS for 30 min at 37 °C. After the addition of 0.10 nM [^35S]GTPγS membranes were incubated for additional 30 min at 37 °C. Incubation was terminated by filtration through Whatman GF/B filters soaked with ice cold PBS. The filter-bound radioactivity was measured as described above. Three to four experiments per compound were performed with each concentration in triplicate.
The activation of G proteins was explored in terms of CXCR3 mediated [^35S]GTPγS incorporation. In the [^35S]GTPγS incorporation assay the membrane preparations of HEK293T cells stably expressing CXCR3 were used. The activation of G proteins was monitored as the incorporation of [^35S]GTPγS and thus increase in the incorporated radioactivity. The potency and efficacy of the novel compounds was first compared to the reference compound 46/VUF10661. […] Table 1. The ability of the 46/VUF10661 based positive allosteric modulators to activate CXCR3 as measured in the [35S]GTPγS incorporation assay.[a]
On the technique in general: GTPγS is a poorly hydrolysed GTP analogue; its binding reports G protein activation.

For test [2], the target named is T2, CXCR3-PK1 (Homo sapiens, UniProt P49682).
T2 construct: expressed in transfected cells; host or cells: HEK293 cells stably expressing beta-gal enzyme acceptor (PathHunter, DiscoveRx), transiently transfected
T2 sequence (P49682 1-368): T1 sequence (P49682 1-368)
Kind of test: β-arrestin 2 recruitment assay (PathHunter, DiscoveRx), CXCR3-PK1 construct. The following applies: for CXCR3-PK1 pEC50 ± SEM: HEK293-T cells, PathHunter, two to three experiments in triplicate. The class given is cell-based. The method, then: (§1) β-arrestin 2 recruitment assay: The measurement of β-arrestin recruitment was performed utilizing the PathHunter assay purchased from DiscoveRx (DiscoveRx, Birmingham, U.K.) according to the manufacturer's protocol. HEK293 cells stably expressing β-gal enzyme acceptor were transiently transfected with the ProLink (PK1) tagged wildtype CXCR3 receptor using the TransIT-293 transfection reagent from Mirus (purchased from MoBiTec, Goettingen, Germany). The assay was carried out in 384-well plates containing 2000 cells in 20 µL. After incubation at 37°C (5% CO2, 95% relative humidity) overnight, various concentrations of test compounds or CXCL11 (prepared in PBS, pH 7.4, containing 0.20% BSA) were added and the incubation continued for 4 h. Detection mix was then added and incubated for further 60 min at room temperature. Chemiluminescence was determined with a microplate reader Clariostar (BMG labtech, Ortenberg, Germany).
(§2) The ability of the novel ligands according to the present invention to induce CXCR3-mediated β-arrestin 2 recruitment was investigated in the assay system PathHunter (DiscoveRx), which detects the recruitment of β-amestin 2 to the activated receptor using β-galactosidase (β-gal) enzyme fragment complementation. The inventors used two different ProLink tags, ProLink1 (PK1) and ProLink2 (PK2), of which PK2 has higher affinity for the enzyme acceptor to detect weak protein-protein interactions. The CXCR3-PK2 construct is readily able to detect the differences in the propensity of CXCL11 and CXCL10 to induce β-arrestin 2 recruitment at CXCR3. […] Table 3. Ability of the 46/VUF10661 based positive allosteric modulators to activate the CXCR3 as measured in the β-arrestin 2 recruitment assay (PathHunter, DiscoveRx).[a]
On the technique in general: Arrestin recruitment assays detect the binding of arrestin to an activated receptor.

The target in test [3] is T3, CXCR3-PK2 (Homo sapiens, UniProt P49682).
T3 construct: expressed in transfected cells
T3 sequence (P49682 1-368): T1 sequence (P49682 1-368)
As to the kind of experiment: β-arrestin 2 recruitment assay (PathHunter, DiscoveRx), CXCR3-PK2 construct. The following applies: for CXCR3-PK2 pEC50 ± SEM: HEK293-T cells, PathHunter. The class given is cell-based. On the procedure:
as §1, §2
To investigate the efficacy of identified partial agonists in the assay format, the inventors used the CXCR3-PK2 construct, which is characterized by higher sensitivity to detect β-arrestin 2 recruitment. The compounds which appeared as weak partial agonists under CXCR3-PK1 conditions appeared as strong partial agonists under CXCR3-PK2 conditions with the efficacy increased up to 80% (Table 4). FAUC1036 reached the efficacy of 66%. […] Table 4. Ability of the compound 5 based positive allosteric modulators to activate the CXCR3 as measured in the β-arrestin 2 recruitment assay (PathHunter, DiscoveRx).[a]

The mark [4] stands for this setting: % of CXCL11 mediated effect, CXCR3-PK1, read-out: CXCR3-PK1 efficacy (%) (converted).
The mark [5] stands for this setting: % of CXCL11 mediated effect, CXCR3-PK2, read-out: CXCR3-PK2 efficacy (%) (converted).

Several values for one entry are separate records, joined by “and”; a condition that tells them apart may be missing. Equal values may be shown once. Read-outs that look alike come from different tables or passages of the source.

Consider seven compounds from patent EP3156398A1, “AGONISTS OF THE CHEMOKINE RECEPTOR CXCR3” (Friedrich-Alexander-Universität Erlangen-Nürnberg, priority 2015, dated 2017).

As for `CC(C)(C)OC(=O)N[C@@H](CCCCNC(=O)[C@@H]1Cc2ccccc2CN1)C(=O)NCC(c1ccccc1)c1ccccc1` [Compound 5, Tert-butyl ((S)-1-((2,2-diphenylethyl)amino)-1-oxo-6-((S)-1,2,3,4-tetrahydroisoquinoline-3-carboxamido)hexan-2-yl)carbamate], in test [1], the “CXCR3 Efficacy (%) ± SEM” value was 34±8%; the Emax was determined as 34%; the “CXCR3 pEC50 ± SEM” value is 5.7 ± 0.34 and 5.66±0.34; the EC50 came to 2200 nM. Also, in test [2] (% of CXCL11 mediated effect, CXCR3-PK1), the “CXCR3-PK1 efficacy (%)” value stood at 31±2%. Moreover, the Emax in test [2] (setting [4]) is 31%. In addition, the “CXCR3-PK1 pEC50 ± SEM” value in test [2] (CXCR3-PK1) is 6.50±0.17. For the same compound, the Emax in test [3] (setting [5]) is 79%. The “CXCR3-PK2 pEC50 ± SEM” value in test [3] (CXCR3-PK2) was determined as 6.71±0.33.
With `N[C@@H](CCCCNC(=O)[C@@H]1Cc2ccccc2CN1C(=O)CCC(=O)c1ccccc1)C(=O)NCC(c1ccccc1)c1ccccc1.O=C(O)C(F)(F)F` [Compound 25, (S)-1-((2,2-diphenylethyl)amino)-1-oxo-6-((S)-2-(4-oxo-4-phenylbutanoyl)-1,2,3,4-tetrahydroisoquinoline-3-carboxamido)hexan-2-aminium 2,2,2-trifluoroacetate], in test [1], the “CXCR3 Efficacy (%) ± SEM” value was “No effect” and the “CXCR3 pEC50 ± SEM” value is listed as “No effect”. The “CXCR3 mediated G protein activation (result in words)” value in test [1] ([35S]GTPγS incorporation) is recorded as “failed to induce CXCR3 mediated G protein activation”. Also, the Emax in test [2] (setting [4]) was 17%. For the same compound, the “CXCR3-PK1 pEC50 ± SEM” value in test [2] (CXCR3-PK1) is 6.80±0.21. Also, the Emax in test [3] (setting [5]) is 27%. Further, in test [3] (CXCR3-PK2), the “CXCR3-PK2 pEC50 ± SEM” value is reported as 6.51±0.34.
Consider `CC(=O)CCC(=O)N1Cc2ccccc2C[C@H]1C(=O)NCCCC[C@H](NC(=O)OC(C)(C)C)C(=O)NCC(c1ccccc1)c1ccccc1` [Compound 12, Tert-butyl((S)-1-((2,2-diphenylethyl)amino)-1-oxo-6-((S)-2-(4-oxopentanoyl)-1,2,3,4-tetrahydroisoquinoline-3-carboxamido)hexan-2-yl)carbamate], for which, in test [1], the “CXCR3 Efficacy (%) ± SEM” value was “No effect” and the “CXCR3 pEC50 ± SEM” value was “No effect”. Further, the Emax in test [2] (setting [4]) was 34%. Besides, in test [2] (CXCR3-PK1), the “CXCR3-PK1 pEC50 ± SEM” value amounted to 6.78±0.17. Also, the Emax in test [3] (setting [5]) is 63%. Besides, the “CXCR3-PK2 pEC50 ± SEM” value in test [3] (CXCR3-PK2) is reported as 6.64±0.33.
On to `CC(C)(C)OC(=O)N[C@@H](CCCCNC(=O)[C@@H]1Cc2ccccc2CN1C(=O)CCCC(=O)c1ccccc1)C(=O)NCC(c1ccccc1)c1ccccc1` [Compound 24, Tert-butyl ((S)-1-((2,2-diphenylelhyl)amino)-1-oxo-6-((S)-2-(5-oxo-5-phenylpentanoyl)-1,2,3,4-tetrahydroisoquinoline-3-carboxamido)hexan-2-yl)carbamate], for which, in test [1], the “CXCR3 Efficacy (%) ± SEM” value was “No efffect” and the “CXCR3 pEC50 ± SEM” value is on record as “No effect”. The “CXCR3-PK1 pEC50 ± SEM” value in test [2] (CXCR3-PK1) stood at 6.84±1.7. In addition, the Emax in test [2] (read-out: CXCR3-PK1 efficacy (%)) was 20%. In test [3] (CXCR3-PK2), the “CXCR3-PK2 pEC50 ± SEM” value was determined as 6.78±0.35. The Emax in test [3] (read-out: CXCR3-PK2 efficacy (%)) is 56%.
In the case of `N[C@H](CCCCNC(=O)[C@@H]1Cc2ccccc2CN1C(=O)CCC(=O)c1ccccc1)C(=O)NCC(c1ccccc1)c1ccccc1.O=C(O)C(F)(F)F` [Compound 35, (R)-1-((2,2-diphenylethyl)amino)-1-oxo-6-((S)-2-(4-oxo-4-phenylbutanoyl)-1,2,3,4-tetrahydroisoquinoline-3-carboxamido)hexan-2-aminium 2,2,2-trifluoroacetate], the Emax is 25 ± 4% in test [1], 28% in test [2] (setting [4]) and 79% in test [3] (setting [5]). The “CXCR3 pEC50 ± SEM” value in test [1] is reported as 8.01±0.31. Besides, in test [2] (CXCR3-PK1), the “CXCR3-PK1 pEC50 ± SEM” value stood at 7.16±0.33. Moreover, the “CXCR3-PK2 pEC50 ± SEM” value in test [3] (CXCR3-PK2) was found to be 6.52±0.43.
Consider `CC(C)(C)OC(=O)N[C@@H](CCCCNC(=O)[C@@H]1Cc2ccccc2CN1C(=O)CCC(=O)c1ccc(S(C)(=O)=O)cc1)C(=O)NCC(c1ccccc1)c1ccccc1` [Compound 15, Tert-butyl ((S)-1-((2,2-diphenylethyl)amino)-6-((S)-2-(4-(4-(methylsulfonyl)phenyl)-4-oxobutanoyl)-1,2,3,4-tetrahydroisoquinoline-3-carboxamido)-1-oxohexan-2-yl)carbamate], for which, in test [1], the Emax worked out at 25 ± 3% and the “CXCR3 pEC50 ± SEM” value is reported as 5.91±0.20. In addition, the “β-arrestin 2 recruitment, intrinsic agonism (result in words)” value in test [2] is listed as “complete loss of intrinsic agonistic properties”. In test [2] (CXCR3-PK1), the “CXCR3-PK1 pEC50 ± SEM” value is listed as “No effect”.
For the compound `NCCCC[C@H](NC(=O)[C@@H]1Cc2ccccc2CN1C(=O)CCC(=O)c1ccccc1)C(=O)NCC(c1ccccc1)c1ccccc1.O=C(O)C(F)(F)F` [Compound 46, (S)-6-((2,2-diphenylethyl)amino)-6-oxo-5-((S)-2-(4-oxo-4-phenylbutanoyl)-1,2,3,4-tetrahydroisoquinoline-3-carboxamido)hexan-1-aminium 2,2,2-trifluoroacetate, reference compound], the values for the Emax in test [1] and in test [2] (setting [4]) were 109 ± 3% and 139%, respectively. For the same compound, the “CXCR3 pEC50 ± SEM” value in test [1] (listed as 46/VUF10661, 2,2,2-trifluoroacetate) was 6.2 ± 0.1 and 6.20±0.06. Moreover, the EC50 in test [1] was 600 nM. The “CXCR3-PK1 pEC50 ± SEM” value in test [2] (CXCR3-PK1, listed as 46/VUF10661, 2,2,2-trifluoroacetate) is on record as 5.89 ± 0.07. Moreover, the “higher efficacy than CXCL11” value in test [2] (β-arrestin 2 recruitment, relative to CXCL11) is listed as around 40%.
